Assay results taken from the NIST ThermoML archive (doi:10.1016/j.fluid.2014.02.027).
± gives the expanded uncertainty stated by the source.

Settings: Liquid; for vapor or sublimation pressure: Closed cell (Static) method

FC(F)(F)C(F)(F)C(F)(C(F)(C(F)(F)F)C(F)(F)F)C(F)(C(F)(F)F)C(F)(F)F
Settings | vapor or sublimation pressure [kPa]
364.58 K | 35 ± 6
368.2 K | 40 ± 6
373.47 K | 48 ± 6
378.29 K | 56 ± 6
388.47 K | 77 ± 6
398.2 K | 103 ± 6
408.48 K | 137 ± 6
418.26 K | 176 ± 6
428.22 K | 226 ± 6
438.31 K | 286 ± 6
448.23 K | 357 ± 6
458.16 K | 438 ± 6
468.16 K | 536 ± 6
478.24 K | 649 ± 6
488.03 K | 778 ± 6
498.02 K | 928 ± 6
503.12 K | 1014 ± 6
507.94 K | 1104 ± 6

FC(F)(F)C(F)(F)C(F)(C(F)(F)C(F)(F)F)C(F)(C(F)(F)F)C(F)(F)F [perfluoro-2-methyl-3-ethylpentane]
Settings | Critical pressure [kPa] | Critical temperature [K] | vapor or sublimation pressure [kPa]
358.2 K | – | – | 59 ± 6
368.19 K | – | – | 82 ± 6
378.2 K | – | – | 111 ± 6
388.17 K | – | – | 146 ± 6
398.19 K | – | – | 191 ± 6
408.13 K | – | – | 245 ± 6
418.15 K | – | – | 312 ± 6
428.16 K | – | – | 391 ± 6
438.11 K | – | – | 484 ± 7
448.07 K | – | – | 593 ± 7
458.05 K | – | – | 720 ± 7
468 K | – | – | 866 ± 8
473 K | – | – | 947 ± 8
477.98 K | – | – | 1034 ± 8
482.95 K | – | – | 1127 ± 8
487.89 K | – | – | 1225 ± 9
492.92 K | – | – | 1332 ± 9
497.89 K | – | – | 1447 ± 10
502.9 K | – | – | 1571 ± 10
Direct measurement | 1685 ± 14 | – | –
Visual observation in an unstirred cell | – | 507.12 ± 0.6 | –
